According to publication PMC7559231, “Drug-induced cholestasis assay in primary hepatocytes” (MethodsX, 2020):
Read-outs that look alike come from different tables or passages of the source.

Columns and labels:
[1] = design: method as in per compound in column References of Table 3 ([3], [24]-[44]); conditions: mean total peak plasma concentration in humans; ref per compound in Table 3 ([3], [24]-[44]); cited from earlier work
[2] = test system: sandwich-cultured human hepatocytes; conditions: SCHH, ref [6],[7], cited from earlier work; for DICI 24 h Mean: 24 h exposure; for DICI 48 h Mean: 48 h exposure
[3] = test system: sandwich-cultured human hepatocytes; test: Drug-induced cholestasis (DIC) assay: urea formation in sandwich-cultured human hepatocytes with and without the bile salt mixture; conditions: lowest in vitro concentration with DICI < 0.78 / Cmax,total; for DICI-based SM obtained with the ‘original’ LOAEL method 24 h: 24 h incubation; for DICI-based SM obtained with the ‘original’ LOAEL method 48 h: 48 h incubation
From the text: Drug-induced cholestasis (DIC) is a major cause of attrition during drug development and post-marketing withdrawal. Early detection of DIC is crucial for avoiding financial losses and improving drug safety. Preclinical assays for DIC detection often rely on evaluation of the test compound towards individual cellular targets such as their inhibitory potential towards the bile salt export pump (BSEP) by using BSEP membrane vesicles. However, the underlying mechanisms of DIC development are more complex involving multiple other transporters and nuclear receptors. A more comprehensive in vitro model such as sandwich-cultured human hepatocytes (SCHH) are more suited due to the presence of metabolizing enzymes and transporters relevant to bile salt disposition. The assay described here relies on changes in the ability of SCHH to produce urea from ammonia in the absence and presence of a (patho-)physiologically relevant bile salt mixture. Ammonia is detoxified in the hepatocyte by the urea cycle to form non-toxic urea. Measuring changes in urea production allows for the quantitative evaluation of the hepatocyte's biochemical and functional integrity. The colorimetric quantitation of urea formation is based on the reaction between urea and diacetylmonoxime.
By determining the ratio of urea formation after incubation with test compound in absence and in presence of the bile salt mixture, the DIC index (DICI) value can be calculated. […] It was previously established that a compound with a SM below 30 can be considered to display increased risk for causing cholestasis in the clinic.
If longer incubations are required (e.g. 48 h), the medium is changed again after 24 h (day 6) with fresh medium containing the same initial concentrations of test compound and bile salts as 24 h before.
• Solution 1: culture medium with no compound and 0.2% DMSO. […] This solution should be filtered through a 0.2 µm filter and prewarmed for 30 min at 37°C. • Solution 4: culture medium with double concentrated test compound. […] This solution should be filtered through a 0.2 µm filter and prewarmed for 30 min at 37°C. • Solution 5: control medium with bile salts, prepared by mixing solution 1 and solution 2 in a 1:1 ratio. • Solution 6: culture medium with positive control without bile salts, prepared by mixing solution 1 and solution 3 in a 1:1 ratio. • Solution 7: culture medium with positive control with bile salts, prepared by mixing solution 2 and solution 3 in a 1:1 ratio. • Solution 8: culture medium with test compound without bile salts, prepared by mixing solution 1 and solution 4 in a 1:1 ratio. • Solution 9: culture medium with test compound with bile salts, prepared by mixing solution 2 and solution 4 in a 1:1 ratio.
• 1. On day 5, aspirate the medium and preincubate the cells with solution 1, solution 6 or solution 8 for 2 h. Note: this preincubation step is performed to enable the compounds to interact with the cellular machinery. • 2. After 2 h, aspirate the medium and immediately incubate the cells with solution 1, solution 5, solution 6, solution 7, solution 8 or solution 9 for 22 h.
The urea assay is performed on day 6 or day 7 for 24 h and 48 h incubations, respectively.
• Solutions for the color reagent. […] Note: perform this procedure on ice as this is an exothermic reaction. Wear appropriate protective gear. • ○ Solution B prepared by mixing the thiosemicarbazide solution and the diacetyl monoxime in a 1:1 ratio. • Incubation buffer: HBSS containing 10 mM HEPES, 2 mM glutamine, 10 mM ammonium chloride and 3 mM ornithine, filtered through a 0.2 µm filter and prewarmed at 37°C. • 96-well thermostable plate with aluminum cover slip.
• 1. Aspirate the culture medium. • 2. Wash the wells twice with 250 µL prewarmed incubation buffer. Aspirate the remaining buffer. • 3. Add 125 µL prewarmed incubation buffer to each well and keep the plate at 37°C for 1 h. • 4.

SMILES | Cmax,total [1] | DICI 24 h Mean ([2]; 100 µM test compound) | DICI 48 h Mean ([2]; 100 µM test compound) | DICI-based SM obtained with the ‘original’ LOAEL method 24 h [3] | DICI-based SM obtained with the ‘original’ LOAEL method 48 h [3] | DICI 24 h Mean ([2]; 10 µM test compound) | DICI 48 h Mean ([2]; 10 µM test compound) | DICI 24 h Mean ([2]; 50 µM test compound) | DICI 48 h Mean ([2]; 50 µM test compound) | also measured
CCC(=O)O[C@@H]1CC(=O)O[C@H](C)C/C=C/C=C/[C@H](O)[C@H](C)C[C@H](CC=O)[C@H](O[C@@H]2O[C@H](C)[C@@H](O[C@H]3C[C@@](C)(O)[C@@H](OC(=O)CC)[C@H](C)O3)[C@H](N(C)C)[C@H]2O)[C@H]1OC [Midecamycin, midecamycin] | 2 µM | 0.71 | 1.07 | 50 | 50 | – | – | – | – | –
CCc1nn(CCCN2CCN(c3cccc(Cl)c3)CC2)c(=O)n1CCOc1ccccc1 [Nefazodone, nefazodone] | 4.26 µM | – | – | – | 7.04 | 0.69 | 1.18 | – | – | DICI 24 h Mean ([2]; 30 µM test compound): 0.77; DICI 48 h Mean ([2]; 30 µM test compound): 0.37; DICI 24 h Mean ([2]; 130 µM test compound): 1.09
CCc1ccc(CCOc2ccc(CC3SC(=O)NC3=O)cc2)nc1 (centres unmarked) [Pioglitazone, pioglitazone] | 2.95 µM | 1.00 | – | 101.69 | 101.69 | – | – | 1.15 | – | DICI 24 h Mean ([2]; 300 µM test compound): 0.94
Cc1ccc(C(=O)c2cc(O)c(O)c([N+](=O)[O-])c2)cc1 [Tolcapone, tolcapone] | 47.6 µM | – | – | 1.05 | 1.05 | 1.05 | 0.89 | 0.91 | 0.79 | DICI 24 h Mean ([2]; 5 µM test compound): 0.98; DICI 48 h Mean ([2]; 5 µM test compound): 1.01
Cc1c(C)c2c(c(C)c1O)CCC(C)(COc1ccc(CC3SC(=O)NC3=O)cc1)O2 (centres unmarked) [Troglitazone, troglitazone] | 6.39 µM | 0.74 | 0.24 | 15.65 | 15.65 | – | – | 1.02 | 1.00 | DICI 24 h Mean ([2]; 20 µM test compound): 0.98; DICI 48 h Mean ([2]; 20 µM test compound): 1.09; DICI 24 h Mean ([2]; 75 µM test compound): 0.78; DICI 48 h Mean ([2]; 75 µM test compound): 0.79
CCOC(=O)CN[C@@H](C(=O)N1CC[C@H]1C(=O)NCc1ccc(/C(N)=N\O)cc1)C1CCCCC1 [Ximelagatran, ximelagatran] | 0.3 µM | – | – | 500 | 500 | – | – | 0.95 | 0.93 | DICI 24 h Mean ([2]; 25 µM test compound): 0.85; DICI 48 h Mean ([2]; 25 µM test compound): 0.95; DICI 24 h Mean ([2]; 150 µM test compound): 1.02; DICI 48 h Mean ([2]; 150 µM test compound): 1.05
